The results in this text go back to patent publication US8673974B2, “Substituted amino bisphenyl pentanoic acid derivatives as NEP inhibitors” (Novartis AG, priority 2010, dated 2014).

In the assay the target is T1, recombinant human neutral endopeptidase (NEP, EC 3.4.24.11) (Homo sapiens, UniProt P08473).
T1 construct: made in house; host or cells: insect cells
Put plainly: in vitro inhibition of recombinant human neutral endopeptidase (fluorescence lifetime assay). The assay is classed as biochemical. The following applies: recombinant human NEP 7 pM, 1 hour pre-incubation, substrate Cys(PT14)-Arg-Arg-Leu-Trp-OH 0.7 μM, read after 1 hour at room temperature, pH 7.4. The source says:
The activity of a compound according to the present invention can be assessed by the following in vitro & in vivo methods and/or by the following in vitro & in vivo methods well-described in the art. See A fluorescence lifetime-based assay for protease inhibitor profiling on human kallikrein 7 Doering K, Meder G, Hinnenberger M, Woelcke J, Mayr L M, Hassiepen U Biomol Screen.
In particular, the in vitro inhibition of recombinant human neutral endopeptidase (NEP, EC 3.4.24.11) can be determined as follows: […]

T1 sequence (P08473 whole entry): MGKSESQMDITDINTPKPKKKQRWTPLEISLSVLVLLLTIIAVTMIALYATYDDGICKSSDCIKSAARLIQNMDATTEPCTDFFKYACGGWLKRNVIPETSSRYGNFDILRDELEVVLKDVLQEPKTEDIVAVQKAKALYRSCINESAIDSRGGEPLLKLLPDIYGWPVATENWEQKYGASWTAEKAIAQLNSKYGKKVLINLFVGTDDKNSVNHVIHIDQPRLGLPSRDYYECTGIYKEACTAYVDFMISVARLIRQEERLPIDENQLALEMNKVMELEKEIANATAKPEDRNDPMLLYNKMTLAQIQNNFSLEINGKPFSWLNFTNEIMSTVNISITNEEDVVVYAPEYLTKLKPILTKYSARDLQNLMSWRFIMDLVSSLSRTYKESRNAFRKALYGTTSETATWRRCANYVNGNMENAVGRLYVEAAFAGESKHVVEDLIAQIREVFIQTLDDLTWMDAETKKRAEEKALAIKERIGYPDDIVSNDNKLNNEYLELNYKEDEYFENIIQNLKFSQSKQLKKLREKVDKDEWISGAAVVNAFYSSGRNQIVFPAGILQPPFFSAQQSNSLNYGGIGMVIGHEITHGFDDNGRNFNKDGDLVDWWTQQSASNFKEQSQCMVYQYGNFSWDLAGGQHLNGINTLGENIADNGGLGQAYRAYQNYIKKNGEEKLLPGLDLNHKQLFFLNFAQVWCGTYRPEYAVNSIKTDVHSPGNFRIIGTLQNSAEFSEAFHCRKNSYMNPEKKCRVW

As to `COc1ccccc1-c1ccc(C[C@H](CC(C)C(=O)O)NC(=O)CCC(=O)O)cc1` (stereo partly drawn) [Example 6, (S)-4-(3-Carboxy-propionylamino)-5-(2′-methoxy-biphenyl-4-yl)-2-methyl-pentanoic acid], the IC50 was determined as 3 nM.
